Measurements from US9737525B2, “Small molecule activators of NRF2 pathway” (The General Hospital Corporation, priority 2013, dated 2017).

Legend:
[1] = tested on: medium spiny neurons (MSNs) expressing mHTTex1; assay: Acutely transfected rat brain slice culture assay; assay type: cell-based
Method: Coronal brain slices (250 μm thick) containing both cortex and striatum were prepared from CD Sprague-Dawley rat pups at postnatal day 10 and placed into interface culture as previously described (Reinhart et al., 2011). A biolistic device (Helios Gene Gun; Bio-Rad) was then used to co-transfect the brain slices with YFP visual reporter and a 90 amino acid mutant huntingtin plasmid containing human htt exon-1 harboring a 73 CAG repeat to induce neurodegeneration of medium spiny neurons (MSNs). mHTTex1 expression induced progressive neurodegeneration of medium spiny neurons (MSNs) compared to controls over a period of 4 days.
MIND4 was added to the culture wells at the time of slice preparation and transfection to a final DMSO concentration of 0.1%; this concentration of DMSO was also added to all control wells. The positive control used for these experiments was the pan-caspase inhibitor Boc-D-FMK at 100 μM (Varna et al., 2007). YFP co-transfected MSNs were identified 4 days after incubation by their location within the striatum and by their characteristic dendritic arborization as previously described (Crittenden et al., 2010; Reinhart et al., 2011). […] Ordinate axis expresses the mean numbers of healthy YFP-positive MSNs per striatal region in each brain slice. […]

primary human monocytes = assay: LDH cell death assay in primary human monocytes; assay type: cell-based; details: any concentration
Method: Blood samples were obtained from control subjects and genetically-diagnosed, symptomatic HD patients. Patients were classed as having early or moderate-stage disease using the total functional capacity (TFC) scale (13-7, early; 6-3, moderate) [Marder, 2000]. Subjects with inflammatory or infective conditions were excluded. Cells were isolated from whole blood, as previously described [Björkqvist, 2008]. In brief, 50 ml whole blood was collected in heparin (CP Pharmaceuticals) and leukocytes were isolated by density gradient centrifugation. Monocytes were sorted via magnetic cell separation columns using anti-CD14 microbeads (Miltenyi Biotec). Monocytes were seeded at 1×10^5 cells per well in 96-well PRIMARIA™ tissue culture plates (BD Falcon) with R10 media (RPMI culture medium supplemented with 10% FCS, 2 mM L-glutamine, 50 U/ml penicillin and […] streptomycin (Invitrogen)). […] Supernatants were analyzed using the human pro-inflammatory II (4-plex) MSD assay measuring IL-1b, IL-6, IL-8 and TNFα. […] Cell death was measured using a LDH assay (CytoTox-Fluor™ Cytotoxicity Assay from Promega). Normalized cytokine levels have been analyzed on the logarithmic scale due to their skewed distribution. […] Contrasts of interest were then calculated using linear combinations of parameter estimates.

iBMM macrophages = assay: Transcriptional responses in LPS-induced iBMM macrophages (qRT-PCR); assay type: cell-based, mouse; details: 24 hr
Method: Immortalized bone marrow derived mouse macrophages (iBMMs) and BV2 mouse microglia cell line were used in the present study. Both cell types were maintained in DMEM media supplemented with 10% FBS and antibiotic-antimycotic mix. Cells were seeded into 12 well plates at the density of 3×10^5 cells/well. Cells were treated with the indicated concentrations of MIND4-17 compounds for 24 hr. Cells were then stimulated with 10 ng/ml LPS (E. coli, Sigma) for 2 hr. Total RNA was isolated using ZR Miniprep kit (Zymo Research). […] of total RNA was used to prepare cDNA. Gene expression was analyzed using VeriQuest SYBR green assay (Affymetrix) in Roche480 thermocycler. Primer sequences are as described above (see Example 9).

EGFP-NRF2 = assay: Live-cell imaging of HEK293 cells expressing EGFP-NRF2 and KEAP1-mCherry; assay type: cell-based, human; details: 1 μM for 1 hr
Method: To examine the effect of MIND4-17 on the stabilization and sub-cellular localization of NRF2 in live cells, HEK293 cells (200,000 per dish) grown in α-MEM supplemented with 10% heat-inactivated FBS on 6-cm glass dishes, were co-transfected with constructs encoding EGFP-NRF2 and KEAP1-mCherry using Lipofectamine 2000 (Invitrogen) as described [Baird, 2013]. Cells were imaged 24 hr post-transfection before and after 1 hr-exposure to 1 μM MIND4-17. All images were acquired by confocal microscopy using a laser-scanning confocal microscope (LSM780; Carl Zeiss). The microscope was equipped with a thermostated chamber suitable to maintain the live cells and optics at constant 37° C. Imaging was performed using a 63× oil immersion NA 1.4 Plan-Apochromat objective from Zeiss.

O=[N+]([O-])c1ccc(Sc2nnc(COc3ccccc3)n2-c2ccccc2)c2ncccc12 [MIND4, 5-nitro-8-{[5-(phenoxymethyl)-4-phenyl-4H-1,2,4-triazol-3-yl]thio}quinoline]
Neuroprotection relative to Boc-D-FMK at 100 μM ([1]; 10 μM): comparable to the efficacy of a reference compound | Protection against mHTTex1-induced neurodegeneration of MSNs ([1]; concentration-dependent, 4 days): significantly protected against mHTTex1-induced neurodegeneration

O=[N+]([O-])c1ccc(Sc2nnc(COc3ccccc3)n2-c2ccccc2)nc1 [MIND4-17]
Toxic effect on viability of primary human monocytes (primary human monocytes): Neither vehicle (DMSO) or MIND4-17 had a toxic effect | Expression of inflammatory factors TNFα, IL-6, IL-1β and MCP-1 (iBMM macrophages): repressed expression of inflammatory factors | Transcription of GCLM and NQO1 (iBMM macrophages): increased transcription of GCLM and NQO1 | Stabilization and sub-cellular localization of NRF2 (EGFP-NRF2): stabilization and nuclear translocation of EGFP-NRF2
